For one experiment, the target named is T1, Adenosine receptor A1 (Homo sapiens, UniProt P30542).
T1 sequence (P30542 whole entry): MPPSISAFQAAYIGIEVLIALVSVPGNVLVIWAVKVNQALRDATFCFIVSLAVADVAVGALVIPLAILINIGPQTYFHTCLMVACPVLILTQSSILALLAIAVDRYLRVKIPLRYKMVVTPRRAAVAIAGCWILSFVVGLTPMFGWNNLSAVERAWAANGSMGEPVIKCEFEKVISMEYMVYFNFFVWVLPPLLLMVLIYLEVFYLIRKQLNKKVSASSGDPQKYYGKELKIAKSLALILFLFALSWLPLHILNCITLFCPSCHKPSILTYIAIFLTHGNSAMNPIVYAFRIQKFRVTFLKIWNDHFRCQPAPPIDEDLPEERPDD

The target of the next experiment is D(1A) dopamine receptor (Homo sapiens, UniProt P21728).
The target in experiment [1] is T2, 5-hydroxytryptamine receptor 1A (Homo sapiens, UniProt P08908).
T2 sequence (P08908 whole entry): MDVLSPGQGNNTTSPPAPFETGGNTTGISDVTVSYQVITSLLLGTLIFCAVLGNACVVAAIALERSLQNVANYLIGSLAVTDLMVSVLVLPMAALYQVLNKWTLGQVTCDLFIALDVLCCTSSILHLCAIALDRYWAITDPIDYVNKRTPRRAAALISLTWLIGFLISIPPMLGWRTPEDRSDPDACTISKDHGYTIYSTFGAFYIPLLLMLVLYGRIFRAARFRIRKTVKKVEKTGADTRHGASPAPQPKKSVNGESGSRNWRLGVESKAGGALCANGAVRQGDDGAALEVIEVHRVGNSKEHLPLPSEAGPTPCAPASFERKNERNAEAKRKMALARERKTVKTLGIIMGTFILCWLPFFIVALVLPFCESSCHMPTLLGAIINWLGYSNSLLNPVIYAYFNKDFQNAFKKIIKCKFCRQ
Format: functional, cell-based.

In experiment [2] the target is Muscarinic acetylcholine receptor M3 (Homo sapiens, UniProt P20309).
For experiment [3], the target named is Beta-1 adrenergic receptor (Homo sapiens, UniProt P08588). Format: functional.
For experiment [4], the target named is T3, Cholecystokinin receptor type A (Homo sapiens, UniProt P32238).
T3 sequence (P32238 whole entry): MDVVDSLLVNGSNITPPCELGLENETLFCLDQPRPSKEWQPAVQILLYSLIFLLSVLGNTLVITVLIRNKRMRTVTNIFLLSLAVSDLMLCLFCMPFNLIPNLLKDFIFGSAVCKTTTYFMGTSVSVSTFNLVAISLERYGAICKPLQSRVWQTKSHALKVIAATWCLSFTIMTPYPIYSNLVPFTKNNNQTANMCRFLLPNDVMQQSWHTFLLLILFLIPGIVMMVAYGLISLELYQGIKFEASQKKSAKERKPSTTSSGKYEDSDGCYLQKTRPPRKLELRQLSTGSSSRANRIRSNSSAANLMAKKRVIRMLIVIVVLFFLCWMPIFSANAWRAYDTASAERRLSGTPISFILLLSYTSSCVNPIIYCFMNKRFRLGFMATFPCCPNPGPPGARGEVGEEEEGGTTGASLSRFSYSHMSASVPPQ

Experiment [5] addresses Neurotensin receptor type 1 (Homo sapiens, UniProt P30989).
For experiment [6], the target named is Sodium-dependent serotonin transporter (Homo sapiens, UniProt P31645).
A further experiment addresses T4, B2 bradykinin receptor (Homo sapiens, UniProt P30411).
T4 sequence (P30411 whole entry): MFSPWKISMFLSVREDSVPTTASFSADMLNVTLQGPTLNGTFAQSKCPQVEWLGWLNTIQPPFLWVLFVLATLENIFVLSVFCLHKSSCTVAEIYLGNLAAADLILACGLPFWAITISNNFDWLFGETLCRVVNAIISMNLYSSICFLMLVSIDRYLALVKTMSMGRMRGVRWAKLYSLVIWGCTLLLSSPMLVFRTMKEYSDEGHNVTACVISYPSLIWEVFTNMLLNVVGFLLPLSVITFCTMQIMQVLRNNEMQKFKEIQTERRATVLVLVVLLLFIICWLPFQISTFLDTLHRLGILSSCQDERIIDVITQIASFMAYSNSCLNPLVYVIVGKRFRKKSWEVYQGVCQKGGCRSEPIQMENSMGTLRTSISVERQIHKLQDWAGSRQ

The target of the next experiment is Cannabinoid receptor 1 (Homo sapiens, UniProt P21554).
Another experiment concerns the target T5, Progesterone receptor (Homo sapiens, UniProt P06401).
T5 sequence (P06401 whole entry): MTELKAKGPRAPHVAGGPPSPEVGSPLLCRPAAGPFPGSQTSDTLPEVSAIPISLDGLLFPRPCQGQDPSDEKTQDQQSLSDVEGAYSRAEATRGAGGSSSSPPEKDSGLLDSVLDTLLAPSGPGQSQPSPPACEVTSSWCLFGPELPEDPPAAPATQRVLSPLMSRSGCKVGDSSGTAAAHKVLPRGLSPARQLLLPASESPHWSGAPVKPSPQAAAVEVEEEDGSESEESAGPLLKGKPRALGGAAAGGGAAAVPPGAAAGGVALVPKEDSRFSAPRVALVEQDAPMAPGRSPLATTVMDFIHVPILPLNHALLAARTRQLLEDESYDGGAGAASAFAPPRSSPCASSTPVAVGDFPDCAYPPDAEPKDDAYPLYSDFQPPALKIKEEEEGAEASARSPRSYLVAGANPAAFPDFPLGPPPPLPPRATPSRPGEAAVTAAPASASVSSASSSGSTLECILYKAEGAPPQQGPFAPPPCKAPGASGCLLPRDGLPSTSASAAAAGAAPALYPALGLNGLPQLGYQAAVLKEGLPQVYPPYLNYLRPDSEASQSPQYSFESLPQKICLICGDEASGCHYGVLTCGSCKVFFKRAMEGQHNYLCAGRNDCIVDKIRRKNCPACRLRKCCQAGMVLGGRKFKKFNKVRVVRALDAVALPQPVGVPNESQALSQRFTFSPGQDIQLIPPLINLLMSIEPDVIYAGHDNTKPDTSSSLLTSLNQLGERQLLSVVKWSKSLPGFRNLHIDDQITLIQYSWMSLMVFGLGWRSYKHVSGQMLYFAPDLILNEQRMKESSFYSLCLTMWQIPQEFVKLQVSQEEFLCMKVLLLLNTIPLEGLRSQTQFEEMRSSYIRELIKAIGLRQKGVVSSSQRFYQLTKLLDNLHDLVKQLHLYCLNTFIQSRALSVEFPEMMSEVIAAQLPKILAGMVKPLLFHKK
In kind it is functional.
Note: assay procedure not described here.

Chain of Muscarinic acetylcholine receptor M3 (P20309 whole entry): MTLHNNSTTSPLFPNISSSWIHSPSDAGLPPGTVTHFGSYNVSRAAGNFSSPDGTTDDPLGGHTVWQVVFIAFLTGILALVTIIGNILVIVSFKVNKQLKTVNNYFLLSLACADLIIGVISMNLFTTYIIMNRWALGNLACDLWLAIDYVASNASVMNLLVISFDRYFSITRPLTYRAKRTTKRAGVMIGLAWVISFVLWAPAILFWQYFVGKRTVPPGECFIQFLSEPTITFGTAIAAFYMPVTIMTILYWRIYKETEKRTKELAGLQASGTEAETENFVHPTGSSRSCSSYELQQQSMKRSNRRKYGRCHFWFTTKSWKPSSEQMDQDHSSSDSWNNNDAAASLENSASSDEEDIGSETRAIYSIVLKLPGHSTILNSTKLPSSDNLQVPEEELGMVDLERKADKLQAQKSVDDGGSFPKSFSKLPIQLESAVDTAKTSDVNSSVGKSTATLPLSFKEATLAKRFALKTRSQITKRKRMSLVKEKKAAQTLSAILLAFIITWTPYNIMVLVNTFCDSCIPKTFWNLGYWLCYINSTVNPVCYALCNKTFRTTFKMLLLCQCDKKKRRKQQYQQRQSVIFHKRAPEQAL
Chain of Beta-1 adrenergic receptor (P08588 whole entry): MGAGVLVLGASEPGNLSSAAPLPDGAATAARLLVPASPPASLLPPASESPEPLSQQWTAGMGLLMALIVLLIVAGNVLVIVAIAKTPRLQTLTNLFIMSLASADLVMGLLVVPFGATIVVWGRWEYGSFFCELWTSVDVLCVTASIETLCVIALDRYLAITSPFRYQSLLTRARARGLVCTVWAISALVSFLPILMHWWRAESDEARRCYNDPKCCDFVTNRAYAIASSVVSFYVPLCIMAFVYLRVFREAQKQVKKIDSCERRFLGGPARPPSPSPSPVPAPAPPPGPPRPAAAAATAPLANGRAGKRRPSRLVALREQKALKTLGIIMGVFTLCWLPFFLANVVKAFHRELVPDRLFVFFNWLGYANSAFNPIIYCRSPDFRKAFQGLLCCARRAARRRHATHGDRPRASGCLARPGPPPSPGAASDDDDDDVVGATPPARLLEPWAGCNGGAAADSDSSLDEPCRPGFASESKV
Chain of D(1A) dopamine receptor (P21728 whole entry): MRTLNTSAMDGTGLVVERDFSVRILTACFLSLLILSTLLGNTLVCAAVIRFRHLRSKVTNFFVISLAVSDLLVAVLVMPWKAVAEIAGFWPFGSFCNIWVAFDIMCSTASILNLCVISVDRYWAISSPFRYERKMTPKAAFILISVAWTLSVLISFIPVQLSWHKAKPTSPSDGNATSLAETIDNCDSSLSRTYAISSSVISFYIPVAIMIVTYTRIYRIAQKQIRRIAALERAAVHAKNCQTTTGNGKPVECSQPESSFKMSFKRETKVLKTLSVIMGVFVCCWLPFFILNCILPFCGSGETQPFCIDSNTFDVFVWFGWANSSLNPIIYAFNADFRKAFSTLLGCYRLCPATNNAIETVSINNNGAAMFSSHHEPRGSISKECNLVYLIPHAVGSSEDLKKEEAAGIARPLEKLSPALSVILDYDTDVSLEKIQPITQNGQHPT
Chain of Sodium-dependent serotonin transporter (P31645 whole entry): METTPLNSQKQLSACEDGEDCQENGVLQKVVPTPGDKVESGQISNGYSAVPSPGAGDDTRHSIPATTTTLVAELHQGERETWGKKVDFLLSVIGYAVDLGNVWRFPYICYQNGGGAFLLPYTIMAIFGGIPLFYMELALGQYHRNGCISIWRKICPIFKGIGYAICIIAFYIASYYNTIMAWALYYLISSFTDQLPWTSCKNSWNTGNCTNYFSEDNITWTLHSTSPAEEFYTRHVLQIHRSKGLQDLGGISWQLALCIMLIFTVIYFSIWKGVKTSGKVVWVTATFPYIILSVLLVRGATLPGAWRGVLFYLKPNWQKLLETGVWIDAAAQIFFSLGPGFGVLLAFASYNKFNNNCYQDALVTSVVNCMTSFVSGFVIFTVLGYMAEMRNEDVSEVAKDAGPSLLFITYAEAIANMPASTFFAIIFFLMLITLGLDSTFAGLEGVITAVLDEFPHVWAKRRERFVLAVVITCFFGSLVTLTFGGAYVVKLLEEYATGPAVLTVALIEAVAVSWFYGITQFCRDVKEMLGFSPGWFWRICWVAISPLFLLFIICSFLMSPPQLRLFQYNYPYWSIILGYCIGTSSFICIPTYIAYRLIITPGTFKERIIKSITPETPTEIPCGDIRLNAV
Chain of Cannabinoid receptor 1 (P21554 whole entry): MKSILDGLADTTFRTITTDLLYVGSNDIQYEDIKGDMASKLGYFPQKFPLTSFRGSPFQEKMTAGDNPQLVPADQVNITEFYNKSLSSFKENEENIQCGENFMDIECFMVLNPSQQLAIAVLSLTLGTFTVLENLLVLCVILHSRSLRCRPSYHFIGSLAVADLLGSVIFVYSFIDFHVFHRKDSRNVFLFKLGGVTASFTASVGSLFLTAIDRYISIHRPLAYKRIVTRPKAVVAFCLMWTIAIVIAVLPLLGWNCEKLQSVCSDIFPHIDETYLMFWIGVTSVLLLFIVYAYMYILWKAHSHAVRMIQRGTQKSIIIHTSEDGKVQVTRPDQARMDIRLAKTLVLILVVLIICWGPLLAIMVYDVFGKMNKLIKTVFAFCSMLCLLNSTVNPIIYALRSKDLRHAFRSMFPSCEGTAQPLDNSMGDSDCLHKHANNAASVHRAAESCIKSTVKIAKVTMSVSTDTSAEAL
Chain of Neurotensin receptor type 1 (P30989 whole entry): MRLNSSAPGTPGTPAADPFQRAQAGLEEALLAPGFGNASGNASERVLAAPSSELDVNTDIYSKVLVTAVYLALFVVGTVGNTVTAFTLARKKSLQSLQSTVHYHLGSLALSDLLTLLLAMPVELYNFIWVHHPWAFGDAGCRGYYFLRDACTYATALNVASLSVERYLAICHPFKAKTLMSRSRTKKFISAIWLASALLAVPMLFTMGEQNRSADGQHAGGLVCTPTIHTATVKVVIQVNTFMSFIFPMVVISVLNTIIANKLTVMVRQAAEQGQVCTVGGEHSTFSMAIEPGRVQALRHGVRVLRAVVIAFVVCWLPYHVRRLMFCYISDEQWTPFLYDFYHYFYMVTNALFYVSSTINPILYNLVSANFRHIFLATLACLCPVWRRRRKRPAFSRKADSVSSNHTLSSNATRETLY

Broadly, the AC50 is the midpoint of the concentration-response curve, whichever way the signal moves. Lower therefore signals greater potency. `NC(=O)c1cccc2cn(-c3ccc([C@@H]4CCCNC4)cc3)nc12` [NIRAPARIB]: the concentration at half-maximal activity (AC50) at Adenosine receptor A1 and at D(1A) dopamine receptor was greater than 30 µM in each case.
`NS(=O)(=O)c1cc2c(cc1Cl)NC(CC1CCCC1)NS2(=O)=O` (configuration not stated) [CYCLOPENTHIAZIDE]: the concentration at half-maximal activity (AC50) (in experiment [1]; at Adenosine receptor A1; on D(1A) dopamine receptor; in [2]) was greater than 30 µM each time.
On to `Cn1cc[nH]c1=S` [METHIMAZOLE], for which the half-maximal activity concentration (AC50) at Adenosine receptor A1 and on D(1A) dopamine receptor was greater than 30 µM each time.
`NCc1ccccc1CC(=O)N[C@@H]1C(=O)N2C(C(=O)O)=C(CSc3nnnn3CC(=O)O)CS[C@H]12` [CEFORANIDE] yielded a half-maximal activity concentration (AC50) at Adenosine receptor A1 greater than 30 µM.
For `Nc1nc(-n2cc(C(=O)O)c(=O)c3cc(F)c(N4CC(O)C4)c(Cl)c32)c(F)cc1F` [DELAFLOXACIN], the AC50 on Adenosine receptor A1 and on D(1A) dopamine receptor was greater than 30 µM in each case.
With `C=C1C[C@@H]2[C@H](CC[C@]3(C)C(=O)CC[C@@H]23)[C@@]2(C)C=CC(=O)C=C12` [EXEMESTANE], the half-maximal activity concentration (AC50) in experiment [3] was greater than 10 µM; in experiment [4], greater than 30 µM; in [1] it was greater than 10 µM; in experiment [5], greater than 30 µM; in experiment [2], greater than 30 µM; in experiment [6] it was greater than 30 µM. Besides, the figures for the concentration at half-maximal activity (AC50) on B2 bradykinin receptor and at Cannabinoid receptor 1 were greater than 30 µM and greater than 10 µM, respectively.
Take `Nc1ccc(/N=N/c2ccccc2)c(N)n1` [PHENAZOPYRIDINE]: the AC50 is 13.1 µM on Adenosine receptor A1, greater than 30 µM at D(1A) dopamine receptor and 3.6 µM in [2].
Regarding `O=C(O)CCn1c2c(c3ccccc31)C[C@H](NS(=O)(=O)c1ccc(F)cc1)CC2` [RAMATROBAN], the AC50 was greater than 30 µM in experiment [3]; 24.8 µM in [4]; greater than 10 µM in experiment [1]; greater than 30 µM on Adenosine receptor A1; greater than 30 µM in experiment [2]; greater than 30 µM in [6]. For the same compound, the values for the AC50 at B2 bradykinin receptor, on Cannabinoid receptor 1 and at Progesterone receptor were greater than 30 µM, greater than 10 µM and greater than 30 µM, respectively.
Turning to `CO/N=C(\C(=O)N[C@@H]1C(=O)N2C(C(=O)OCOC(=O)C(C)(C)C)=C(C)CS[C@H]12)c1csc(N)n1`, the concentration at half-maximal activity (AC50) (in experiment [1]; at Adenosine receptor A1; at D(1A) dopamine receptor; in [2]) was greater than 30 µM each time.
On to `COCC1=C(C(=O)OC(C)OC(=O)OC(C)C)N2C(=O)[C@@H](NC(=O)/C(=N\OC)c3csc(N)n3)[C@H]2SC1` (some centres not stated) [CEFPODOXIME PROXETIL], for which the half-maximal activity concentration (AC50) (in experiment [1]; on Adenosine receptor A1; at D(1A) dopamine receptor; in experiment [2]) was greater than 30 µM each time.
As for `CN1C(=O)N(C)C2C1N(C)C(=O)N2C` (configuration not stated) [MEBICAR], the concentration at half-maximal activity (AC50) (in [1]; at Adenosine receptor A1; on D(1A) dopamine receptor; in experiment [2]) was greater than 30 µM throughout.
As to `O=C(Cn1ccnc1[N+](=O)[O-])NCc1ccccc1` [BENZNIDAZOLE], the AC50 (in [3]; in experiment [4]; on Adenosine receptor A1; at D(1A) dopamine receptor; in experiment [2]; in [6]) was greater than 30 µM each time. The half-maximal activity concentration (AC50) on B2 bradykinin receptor and at Progesterone receptor was greater than 30 µM throughout.
On to `CCS(=O)(=O)N1CC(CC#N)(n2cc(-c3ncnc4[nH]ccc34)cn2)C1` [BARICITINIB], for which the AC50 on Adenosine receptor A1 is greater than 30 µM.
The same measure, in the same setting: for `CCOC(=O)CC(SP(=S)(OC)OC)C(=O)OCC` (configuration not stated) [MALATHION] the value was 11.5 µM.
In the case of `N/N=c1/cc2c(n[nH]1)CCN(C(=O)c1ccccc1)C2` [ENDRALAZINE], the half-maximal activity concentration (AC50) (in [1]; on Adenosine receptor A1; on D(1A) dopamine receptor; in [2]) was greater than 30 µM in each case.
`CC(=O)O[C@]1(C(C)=O)CC[C@H]2[C@@H]3C[C@H](C)C4=CC(=O)CC[C@]4(C)[C@H]3CC[C@@]21C` [MEDROXYPROGESTERONE ACETATE]: the AC50 (in experiment [3]; in experiment [4]; on Adenosine receptor A1; at B2 bradykinin receptor) was greater than 30 µM each time.
`COc1cc(NCc2ccc3nc(N)nc(N)c3c2C)cc(OC)c1OC` [TRIMETREXATE]: at Adenosine receptor A1, the AC50 is greater than 30 µM.
Regarding `CC1=NN(c2ccccc2)C(=O)C1` [EDARAVONE], the concentration at half-maximal activity (AC50) at Adenosine receptor A1 and on D(1A) dopamine receptor was greater than 30 µM throughout.
With `O=C(O)c1cccc(-c2noc(-c3ccccc3F)n2)c1`, the concentration at half-maximal activity (AC50) on Adenosine receptor A1 is greater than 30 µM.
`CC(C)=CCC1C(=O)N(c2ccccc2)N(c2ccccc2)C1=O` [FEPRAZONE]: the AC50 on Adenosine receptor A1 and at D(1A) dopamine receptor was greater than 30 µM throughout.

Values taken from ChEMBL document CHEMBL5291721, “A preclinical secondary pharmacology resource illuminates target-adverse drug reaction associations of marketed drugs” (Nat Commun, 2023).
